Columns and labels:
Type in all cases: in vivo
[1] = test system: Tetranychus urticae (two-spotted spider mite); assay: 24-hour fumigation in sealed 1-L container, fatality rate
Description: (§1) Sitophilus oryzae (rice weevil), Tetranychus urticae (two-spotted spider mite), Lasioderma serricorne (cigarette beetle), Blattella germanica (German cockroach), Anoplolepis longipes (long-legged ant), and Solenopsis invicta (red imported fire ant) were used as the test objects of this experiment and were each put into several 1-L containers. A carrier containing an isododecane (or 2,2,4,6,6-pentamethylheptane to be exact) at each of a plurality of predetermined concentrations (i.e., 2.5, 5, 10, 20, 30, and 40 mg) was then put into one of the 1-L containers of each test object, before the containers were sealed to start a 24-hour fumigation process. After that, the containers were aerated, and the numbers of deaths of each kind of pests were counted.
(§2) Sitophilus oryzae, Tetranychus urticae, Lasioderma serricorne, Blattella germanica, Anoplolepis longipes, and Solenopsis invicta were each put into several 1-L containers. A carrier containing each of n-dodecane, n-decane, 2-methylnonane (an isodecane), and 2,2,4,6,6-pentamethylheptane (an isododecane) at a concentration of 30 mg was then put into one of the 1-L containers of each test object, before the containers were sealed to start a 24-hour fumigation process. After that, the containers were aerated, and the numbers of deaths of each kind of pests were counted.

[2] = test system: Anoplolepis longipes (long-legged ant); assay: as above
Description: as §1, §2

[3] = test system: Sitophilus oryzae (rice weevil); assay: as above
Description: as §1, §2

[4] = test system: Lasioderma serricorne (cigarette beetle); assay: as above
Description: as §1, §2

[5] = test system: Solenopsis invicta (red imported fire ant); assay: as above
Description: as §1, §2

[6] = test system: Blattella germanica (German cockroach); assay: as above
Description: as §1, §2

mosquito larvae = assay: Mosquito larvae killing in 100 mL deionized water, 24 hours, fatality rate; conditions: uncovered
Procedure: Artificially raised non-pathogenic mosquito larvae were divided into a plurality of groups each including 30 larvae. Each group of larvae was put into a 1-L container together with 100 mL of deionized water. Then, a reagent containing a spreading agent for agricultural use as well as an isododecane and an isohexadecane in a ratio of 4:1 was added into the deionized water in each container at one of a plurality of predetermined doses and thoroughly mixed. The containers were left uncovered. After 24 hours, the numbers of deaths of the mosquito larvae were counted.

[7] = Table 2: compound at 30 mg in 1-L container

CC(CC(C)(C)C)CC(C)(C)C [2,2,4,6,6-pentamethylheptane]
Fatality rate (%) Tetranychus urticae [1, 7]: 100% | Fatality rate (%) Tetranychus urticae ([1]; dose 2.5 mg in 1-L container): 45% | Fatality rate (%) Tetranychus urticae ([1]; dose 5 mg in 1-L container): 72% | Fatality rate (%) Tetranychus urticae ([1]; dose 10 mg in 1-L container): 100% | Fatality rate (%) Tetranychus urticae ([1]; dose 20 mg in 1-L container): 100% | Fatality rate (%) Tetranychus urticae ([1]; dose 30 mg in 1-L container): 100% | Fatality rate (%) Tetranychus urticae ([1]; dose 40 mg in 1-L container): 100% | Fatality rate (%) Anoplolepis longipes [2, 7]: 100% | Fatality rate (%) Anoplolepis longipes ([2]; dose 2.5 mg in 1-L container): 8% | Fatality rate (%) Anoplolepis longipes ([2]; dose 5 mg in 1-L container): 14% | Fatality rate (%) Anoplolepis longipes ([2]; dose 10 mg in 1-L container): 32% | Fatality rate (%) Anoplolepis longipes ([2]; dose 20 mg in 1-L container): 80% | Fatality rate (%) Anoplolepis longipes ([2]; dose 30 mg in 1-L container): 100% | Fatality rate (%) Anoplolepis longipes ([2]; dose 40 mg in 1-L container): 100% | Fatality rate (%) Sitophilus oryzae [3, 7]: 100% | Fatality rate (%) Sitophilus oryzae ([3]; dose 2.5 mg in 1-L container): 0% | Fatality rate (%) Sitophilus oryzae ([3]; dose 5 mg in 1-L container): 7% | Fatality rate (%) Sitophilus oryzae ([3]; dose 10 mg in 1-L container): 22% | Fatality rate (%) Sitophilus oryzae ([3]; dose 20 mg in 1-L container): 30% | Fatality rate (%) Sitophilus oryzae ([3]; dose 30 mg in 1-L container): 100% | Fatality rate (%) Sitophilus oryzae ([3]; dose 40 mg in 1-L container): 100% | Fatality rate (%) Lasioderma serricorne [4, 7]: 100% | Fatality rate (%) Lasioderma serricorne ([4]; dose 2.5 mg in 1-L container): 5% | Fatality rate (%) Lasioderma serricorne ([4]; dose 5 mg in 1-L container): 18% | Fatality rate (%) Lasioderma serricorne ([4]; dose 10 mg in 1-L container): 25% | Fatality rate (%) Lasioderma serricorne ([4]; dose 20 mg in 1-L container): 42.11% | Fatality rate (%) Lasioderma serricorne ([4]; dose 30 mg in 1-L container): 100% | Fatality rate (%) Lasioderma serricorne ([4]; dose 40 mg in 1-L container): 100% | Fatality rate (%) Solenopsis invicta [5, 7]: 100% | Fatality rate (%) Solenopsis invicta ([5]; dose 2.5 mg in 1-L container): 32% | Fatality rate (%) Solenopsis invicta ([5]; dose 5 mg in 1-L container): 55% | Fatality rate (%) Solenopsis invicta ([5]; dose 10 mg in 1-L container): 100% | Fatality rate (%) Solenopsis invicta ([5]; dose 20 mg in 1-L container): 100% | Fatality rate (%) Solenopsis invicta ([5]; dose 30 mg in 1-L container): 100% | Fatality rate (%) Solenopsis invicta ([5]; dose 40 mg in 1-L container): 100% | Fatality rate (%) Blattella germanica [6, 7]: 100% | Fatality rate (%) Blattella germanica ([6]; dose 2.5 mg in 1-L container): 7% | Fatality rate (%) Blattella germanica ([6]; dose 5 mg in 1-L container): 18% | Fatality rate (%) Blattella germanica ([6]; dose 10 mg in 1-L container): 38% | Fatality rate (%) Blattella germanica ([6]; dose 20 mg in 1-L container): 88.89% | Fatality rate (%) Blattella germanica ([6]; dose 30 mg in 1-L container): 100% | Fatality rate (%) Blattella germanica ([6]; dose 40 mg in 1-L container): 100% | Fatality rate (%) of mosquito larvae (mosquito larvae; dose 2.5 mg in 100 mL deionized water): 33% | Fatality rate (%) of mosquito larvae (mosquito larvae; dose 5 mg in 100 mL deionized water): 50% | Fatality rate (%) of mosquito larvae (mosquito larvae; dose 10 mg in 100 mL deionized water): 80% | Fatality rate (%) of mosquito larvae (mosquito larvae; dose 20 mg in 100 mL deionized water): 100% | Fatality rate (%) of mosquito larvae (mosquito larvae; dose 40 mg in 100 mL deionized water): 100%

CCCCCCCCCCCC [n-dodecane]
Fatality rate (%) Tetranychus urticae [1, 7]: 95% | Fatality rate (%) Anoplolepis longipes [2, 7]: 25% | Fatality rate (%) Sitophilus oryzae [3, 7]: 50% | Fatality rate (%) Lasioderma serricorne [4, 7]: 100% | Fatality rate (%) Solenopsis invicta [5, 7]: 5% | Fatality rate (%) Blattella germanica [6, 7]: 22.22%

CCCCCCCCCC [n-decane]
Fatality rate (%) Tetranychus urticae [1, 7]: 100% | Fatality rate (%) Anoplolepis longipes [2, 7]: 75% | Fatality rate (%) Sitophilus oryzae [3, 7]: 100% | Fatality rate (%) Lasioderma serricorne [4, 7]: 100% | Fatality rate (%) Solenopsis invicta [5, 7]: 100% | Fatality rate (%) Blattella germanica [6, 7]: 100%

CCCCCCCC(C)C [2-methylnonane]
Fatality rate (%) Tetranychus urticae [1, 7]: 100% | Fatality rate (%) Anoplolepis longipes [2, 7]: 90% | Fatality rate (%) Sitophilus oryzae [3, 7]: 100% | Fatality rate (%) Lasioderma serricorne [4, 7]: 100% | Fatality rate (%) Solenopsis invicta [5, 7]: 100% | Fatality rate (%) Blattella germanica [6, 7]: 100%

Reference: patent US20250120397A1, “PEST CONTROL METHOD” (National Chung Hsing University, priority 2023, published 2025)
